Assay results taken from ChEMBL document CHEMBL4334519, “Anti-inflammatory and α-Glucosidase Inhibitory Activities of Labdane and Norlabdane Diterpenoids from the Rhizomes of Amomum villosum” (J Nat Prod, 2019).
Active and inactive are the calls of the source. No cut-off for these calls is given here.

Key:
Saccharomyces cerevisiae [1] = test: Inhibition of yeast alpha-glucosidase at 50 uM using p-nitrophenyl-alpha-D-glucopyranoside as substrate preincubated for 30 mins followed by substrate addition and measured after 30 mins by microplate reader analysis
[2] = Inhibition of yeast alpha-glucosidase using p-nitrophenyl-alpha-D-glucopyranoside as substrate preincubated for 30 mins followed by substrate addition and measured after 30 mins by microplate reader analysis; set-up: species or system Saccharomyces cerevisiae
RAW264.7 = test: Antiinflammatory activity against mouse RAW264.7 cells assessed as inhibition of LPS-induced nitric oxide production measured after 24 hrs; type: functional, cell-based; conditions: RAW264.7, 24 h
Saccharomyces cerevisiae [3] = test: Mixed-type inhibition of yeast alpha-glucosidase assessed as reduction in Km up to 20 uM using p-NPG as substrate measured up to 180 mins by Lineweaver-Burk plot analysis
Saccharomyces cerevisiae [4] = test: Mixed-type inhibition of yeast alpha-glucosidase assessed as reduction in Vmax up to 20 uM using p-NPG as substrate measured up to 180 mins by Lineweaver-Burk plot analysis
[5] = Mixed-type inhibition of yeast alpha-glucosidase assessed as inhibition constant using p-NPG as substrate measured up to 180 mins by Lineweaver-Burk plot analysis; set-up: species or system Saccharomyces cerevisiae

**Q.** What does the source list for `C=C1CC[C@H]2C(C)(C)CCC[C@]2(C)[C@H]1C/C=C(/C=O)CO`?
**A.** inhibition (Saccharomyces cerevisiae [1]): 27.1%; IC50 [2]: > 50 µM; IC50 (RAW264.7): 28.7 µM

**Q.** With `C=C1CC[C@H]2C(C)(C)CCC[C@]2(C)[C@H]1/C=C/C1=CC(=O)O[C@H]1O` as the compound, how does the inhibition (Saccharomyces cerevisiae [1]) read?
**A.** Its inhibition is 95.7%.

**Q.** What about the inhibition (Saccharomyces cerevisiae [3]) of the same compound?
**A.** Its inhibition is “Active”.

**Q.** And the IC50 [2]?
**A.** The IC50 was 10 µM.

**Q.** And the inhibition (Saccharomyces cerevisiae [4])?
**A.** The inhibition was “Active”.

**Q.** And the IC50 (RAW264.7)?
**A.** Its IC50 is 2.4 µM.

**Q.** And the Ki [5]?
**A.** The Ki was 9.5 µM.

**Q.** With `C=C1CC[C@H]2C(C)(C)CCC[C@]2(C)[C@H]1C/C=C(\CC(=O)OCC)C(=O)O` as the compound, how does the inhibition (Saccharomyces cerevisiae [1]) read?
**A.** Its inhibition is 38.7%.

**Q.** What about the IC50 [2] of the same compound?
**A.** The IC50 was > 50 µM.

**Q.** What about the IC50 (RAW264.7) of the same compound?
**A.** The IC50 was > 50 µM.

**Q.** With `C=C1CC[C@H]2C(C)(C)CCC[C@]2(C)[C@H]1C/C=C1\CC(OCC)OC1=O` (some centres undefined) as the compound, how does the inhibition (Saccharomyces cerevisiae [1]) read?
**A.** Its inhibition is 89.3%.

**Q.** What about the IC50 [2] of the same compound?
**A.** Its IC50 is 13.8 µM.

**Q.** What about the IC50 (RAW264.7) of the same compound?
**A.** Its IC50 is 31.2 µM.

**Q.** For `C=C1CC[C@H]2C(C)(C)CCC[C@]2(C)[C@H]1CCC1=CC(O)OC1=O` (some centres undefined) [CORONARIN C], which inhibition (Saccharomyces cerevisiae [1]) is on record?
**A.** Its inhibition is 87.4%.

**Q.** And the IC50 [2]?
**A.** The IC50 was 17.5 µM.

**Q.** What about the IC50 (RAW264.7) of the same compound?
**A.** The IC50 was 25.8 µM.

**Q.** With `C=C1CC[C@H]2C(C)(C)CCC[C@]2(C)[C@H]1/C=C/C(=O)O` as the compound, how does the inhibition (Saccharomyces cerevisiae [1]) read?
**A.** Its inhibition is 33.2%.

**Q.** And the IC50 [2]?
**A.** Its IC50 is > 50 µM.

**Q.** And the IC50 (RAW264.7)?
**A.** The IC50 was 23.7 µM.

**Q.** Which results are given for `C=C1CC[C@H]2C(C)(C)CCC[C@]2(C)[C@H]1C/C=C1\CC(OC)OC1=O` (some centres undefined)?
**A.** inhibition (Saccharomyces cerevisiae [1]): 87.8%; IC50 [2]: 15.8 µM; IC50 (RAW264.7): 24.6 µM

**Q.** With `C=C1CC[C@H]2C(C)(C)CCC[C@]2(C)[C@H]1C/C=C1\CC(=O)OC1=O` as the compound, how does the inhibition (Saccharomyces cerevisiae [1]) read?
**A.** Its inhibition is 90.3%.

**Q.** What about the IC50 [2] of the same compound?
**A.** The IC50 was 21.1 µM.

**Q.** And the IC50 (RAW264.7)?
**A.** The IC50 was 11 µM.

**Q.** With `O=c1c(-c2ccc(O)cc2)coc2cc(O)cc(O)c12` [GENISTEIN] as the compound, how does the inhibition (Saccharomyces cerevisiae [1]) read?
**A.** Its inhibition is 70%.

**Q.** What about the IC50 [2] of the same compound?
**A.** Its IC50 is 17.6 µM.

**Q.** Which results are given for `C=C1CC[C@H]2C(C)(C)CCC[C@]2(C)[C@H]1C/C=C(/C=O)CCO`?
**A.** inhibition (Saccharomyces cerevisiae [1]): 36.9%; IC50 [2]: > 50 µM; IC50 (RAW264.7): > 50 µM

**Q.** Which IC50 (RAW264.7) does the source give for `CNC(=N)NCCC[C@H](N)C(=O)O` [TILARGININE] here?
**A.** Its IC50 is 27.2 µM.

**Q.** With `C=C1CC[C@H]2C(C)(C)CCC[C@]2(C)[C@H]1C/C=C1\CCOC1=O` as the compound, how does the inhibition (Saccharomyces cerevisiae [1]) read?
**A.** Its inhibition is 89.1%.

**Q.** And the IC50 [2]?
**A.** Its IC50 is 17.1 µM.

**Q.** And the IC50 (RAW264.7)?
**A.** Its IC50 is 30.8 µM.

**Q.** What does the source list for `OC[C@H]1NC[C@H](O)[C@@H](O)[C@@H]1O` [DUVOGLUSTAT]?
**A.** inhibition (Saccharomyces cerevisiae [1]): 36.8%; IC50 [2]: 115 µM

**Q.** With `CC1(C)CCC[C@]2(C)CC3=C(C[C@@H]12)C(=O)CC3` as the compound, how does the inhibition (Saccharomyces cerevisiae [1]) read?
**A.** The inhibition was 12.4%.

**Q.** And the IC50 [2]?
**A.** The IC50 was > 50 µM.

**Q.** What about the IC50 (RAW264.7) of the same compound?
**A.** The IC50 was 43.1 µM.

**Q.** For `C=C1CC[C@H]2C(C)(C)CCC[C@]2(C)[C@H]1CCC1=CC(=O)OC1`, which inhibition (Saccharomyces cerevisiae [1]) is on record?
**A.** Its inhibition is 89%.

**Q.** And the IC50 [2]?
**A.** The IC50 was 14.8 µM.

**Q.** What about the IC50 (RAW264.7) of the same compound?
**A.** Its IC50 is 18.8 µM.
